≈ marks a conversion by molar mass, not a printed value. Like-named read-outs stand apart in the source and are kept apart here.
Tests used:
E. coli MG1655 D87G = assay type: cell-based, Escherichia coli; settings: compared to the isogenic parent strain E. coli MG1655; D87G mutation on DNA gyrase subunit GyrA
[1] = test system: Streptococcus pneumoniae ATCC 49619; assay: MIC, broth microdilution (CLSI) versus planktonic bacteria; assay type: cell-based
E. coli MG1655 S83L = assay type: cell-based, Escherichia coli; settings: compared to the isogenic parent strain E. coli MG1655; S83L mutation on DNA gyrase subunit GyrA
[2] = test system: Acinetobacter baumannii NCTC 13420; assay: MIC, broth microdilution (CLSI) versus planktonic bacteria; assay type: cell-based
[3] = test system: human hepatic cell line (HepG2 ATCC HB-8065); assay: Human cell viability assay (CellTiter-Glo); settings: Homo sapiens, HepG2, 24 h, read-out: IC50 (μg/mL) HepG2
[4] = test system: Escherichia coli ATCC 25922; assay: MIC, broth microdilution (CLSI) versus planktonic bacteria; assay type: cell-based
[5] = test system: Staphylococcus aureus ATCC 29213; assay: as above; assay type: cell-based
[6] = test system: Enterobacter cloacae NCTC 13406; assay: as above; assay type: cell-based
[7] = test system: Haemophilus influenzae ATCC 49247; assay: as above; assay type: cell-based
[8] = test system: Pseudomonas aeruginosa ATCC 27853; assay: as above; assay type: cell-based
E. coli MG1655 = assay: as above; assay type: cell-based, Escherichia coli; settings: Escherichia coli, MG1655, read-out: MIC, Ec MG1655 WT
[9] = test system: Acinetobacter baumannii ATCC 19606; assay: as above; assay type: cell-based
E. coli NCTC 13476 = assay: as above; assay type: cell-based; settings: NCTC13476; Escherichia coli NCTC 13476; 16-20 h; mode of three independent experiments; read-out: MIC, Ec NCTC 13476
E. coli ATCC BAA-2452 = assay: as above; assay type: cell-based; settings: Escherichia coli ATCC BAA-2452; 16-20 h; mode of three independent experiments; read-out: MIC, Ec ATCC BAA 2452
[10] = ATCC49619, Streptococcus pneumoniae ATCC 49619, 16-20 h, mode of three independent experiments, read-out: MIC, Sp ATCC 49619
[11] = NCTC13420, Acinetobacter baumannii NCTC 13420, 16-20 h, mode of three independent experiments, read-out: MIC, Ab NCTC 13420
[12] = ATCC25922, Escherichia coli ATCC 25922, 16-20 h, mode of three independent experiments, read-out: MIC, Ec ATCC 25922
[13] = ATCC29213, Staphylococcus aureus ATCC 29213, 16-20 h, mode of three independent experiments, read-out: MIC, Sa ATCC 29213
[14] = NCTC13406, Enterobacter cloacae NCTC 13406, 16-20 h, mode of three independent experiments, read-out: MIC, Ecl NCTC 13406
[15] = ATCC49247, Haemophilus influenzae ATCC 49247, 16-20 h, mode of three independent experiments, read-out: MIC, Hi ATCC 49247
[16] = ATCC27853, Pseudomonas aeruginosa ATCC 27853, 16-20 h, mode of three independent experiments, read-out: MIC, Pa ATCC 27853
[17] = ATCC19606, Acinetobacter baumannii ATCC 19606, 16-20 h, mode of three independent experiments, read-out: MIC, Ab ATCC 19606

Row | SMILES | Fold increase in MIC, E. coli MG1655 D87G (E. coli MG1655 D87G) | MIC [1, 10] | Fold increase in MIC, E. coli MG1655 S83L (E. coli MG1655 S83L) | MIC [2, 11] | IC50 [3] | MIC [4, 12] | MIC [5, 13] | MIC [6, 14] | MIC [7, 15] | MIC [8, 16] | MIC (E. coli MG1655) | MIC [9, 17] | other results
1 | COc1ccc2c3conc3c(=O)n(CCN[C@H]3CC[C@H]4[C@@H](C3)OC(=O)N4c3ccc4c(n3)NC(=O)CO4)c2c1 [Compound 11, (3aS,6S,7aR)-6-[(2-{7-methoxy-4-oxo-4H,5H-[1,2]oxazolo[3,4-c]quinolin-5-yl}ethyl)amino]-3-{3-oxo-2H,3H,4H-pyrido[3,2-b][1,4]oxazin-6-yl}-octahydro-1,3-benzoxazol-2-one] | 1 fold | 1 to 10 µg/mL (≈ 1.83 to 18.3 µM) | 2 fold | < 1 µg/mL | 10 to 100 µg/mL (≈ 18.3 to 183 µM) | < 1 µg/mL | < 1 µg/mL | 1 to 10 µg/mL (≈ 1.83 to 18.3 µM) | 1 to 10 µg/mL (≈ 1.83 to 18.3 µM) | 1 to 10 µg/mL (≈ 1.83 to 18.3 µM) | < 1 µg/mL | 1 to 10 µg/mL (≈ 1.83 to 18.3 µM) | –
2 | O=C1COc2ccc(N3C(=O)O[C@@H]4C[C@@H](NCCn5c(=O)ccc6ccc(Oc7cccnc7)nc65)CC[C@@H]43)nc2N1 [Compound 12, 1-(2-{[(3aS,6S,7aR)-2-oxo-3-{3-oxo-2H,3H,4H-pyrido[3,2-b][1,4]oxazin-6-yl}-octahydro-1,3-benzoxazol-6-yl]amino}ethyl)-7-(pyridin-3-yloxy)-1,2-dihydro-1,8-naphthyridin-2-one] | 1 fold | < 1 µg/mL | 1 fold | 1 to 10 µg/mL (≈ 1.76 to 17.6 µM) | > 100 µg/mL | < 1 µg/mL | < 1 µg/mL | 1 to 10 µg/mL (≈ 1.76 to 17.6 µM) | 1 to 10 µg/mL (≈ 1.76 to 17.6 µM) | 1 to 10 µg/mL (≈ 1.76 to 17.6 µM) | < 1 µg/mL | 1 to 10 µg/mL (≈ 1.76 to 17.6 µM) | –
3 | COc1ccc2ccc(=O)n(CCN(CCN)[C@H]3CC[C@H]4[C@@H](C3)OC(=O)N4c3ccc4c(n3)NC(=O)CO4)c2n1 [Compound 13, 1-(2-{[(3aS,6S,7aR)-2-oxo-3-{3-oxo-2H,3H,4H-pyrido[3,2-b][1,4]oxazin-6-yl}-octahydro-1,3-benzoxazol-6-yl](2-aminoethyl)amino}ethyl)-7-methoxy-1,2-dihydro-1,8-naphthyridin-2-one] | – | 1 to 10 µg/mL (≈ 1.82 to 18.2 µM) | – | 10 to 100 µg/mL (≈ 18.2 to 182 µM) | > 100 µg/mL | 1 to 10 µg/mL (≈ 1.82 to 18.2 µM) | < 1 µg/mL | 10 to 100 µg/mL (≈ 18.2 to 182 µM) | 10 to 100 µg/mL (≈ 18.2 to 182 µM) | 1 to 10 µg/mL (≈ 1.82 to 18.2 µM) | – | – | MIC (E. coli NCTC 13476): 1 to 10 µg/mL (≈ 1.82 to 18.2 µM)
4 | CNCCOc1ccc2ccc(=O)n(CCN[C@@H]3CC[C@@H]4[C@@H](C3)OC(=O)N4c3ccc4c(n3)NC(=O)CO4)c2c1 [Compound 39, (3aR,6R,7aR)—N-(2-{7-[2-(methylazaniumyl)ethoxy]-2-oxo-1,2-dihydroquinolin-1-yl}ethyl)-2-oxo-3-{3-oxo-2H,3H,4H-pyrido[3,2-b][1,4]oxazin-6-yl}-octahydro-1,3-benzoxazol-6-aminium dichloride] | – | – | – | – | > 100 µg/mL | – | – | – | – | – | – | – | MIC ([1]; Streptococcus pneumoniae, ATCC49619, read-out: MIC, Sp ATCC 49619): 1 to 10 µg/mL; MIC ([2]; Acinetobacter baumannii, NCTC13420, read-out: MIC, Ab NCTC 13420): 10 to 100 µg/mL; MIC ([4]; Escherichia coli, ATCC25922, read-out: MIC, Ec ATCC 25922): 1 to 10 µg/mL; MIC ([5]; Staphylococcus aureus, ATCC29213, read-out: MIC, Sa ATCC 29213): 1 to 10 µg/mL; MIC ([6]; Enterobacter cloacae, NCTC13406, read-out: MIC, Ecl NCTC 13406): 10 to 100 µg/mL; MIC ([7]; Haemophilus influenzae, ATCC49247, read-out: MIC, Hi ATCC 49247): 10 to 100 µg/mL; MIC ([8]; Pseudomonas aeruginosa, ATCC27853, read-out: MIC, Pa ATCC 27853): 1 to 10 µg/mL; MIC ([9]; Acinetobacter baumannii, ATCC19606, read-out: MIC, Ab ATCC 19606): > 100 µg/mL
5 | COc1cnc2ccc(=O)n(CCN[C@H]3CC[C@H]4[C@H](C3)OC(=O)N4c3ccc4c(n3)NC(=O)CO4)c2c1 [Compound 42, 7-methoxy-1-{2-[(2-oxo-3-{3-oxo-2H,3H,4H-pyrido[3,2-b][1,4]oxazin-6-yl}-octahydro-1,3-benzoxazol-6-yl)amino]ethyl}-1,2-dihydro-1,5-naphthyridin-2-one] | 2 fold | < 1 µg/mL | 1 fold | < 1 µg/mL | > 100 µg/mL | < 1 µg/mL | < 1 µg/mL | < 1 µg/mL | < 1 µg/mL | 1 to 10 µg/mL (≈ 1.97 to 19.7 µM) | < 1 µg/mL | 1 to 10 µg/mL (≈ 1.97 to 19.7 µM) | –
6 | COc1ccc2ccc(=O)n(CCCN[C@@H]3CC[C@@H]4[C@@H](C3)OC(=O)N4c3ncc4c(n3)NC(=O)CO4)c2n1 [Compound 79, 1-(3-{[(3aR,6R,7aR)-2-oxo-3-{7-oxo-6H,7H,8H-pyrimido[5,4-b][1,4]oxazin-2-yl}-octahydro-1,3-benzoxazol-6-yl]amino}propyl)-7-methoxy-1,2-dihydro-1,8-naphthyridin-2-one] | – | < 1 µg/mL | – | < 1 µg/mL | 10 to 100 µg/mL (≈ 19.2 to 192 µM) | < 1 µg/mL | < 1 µg/mL | 1 to 10 µg/mL (≈ 1.92 to 19.2 µM) | < 1 µg/mL | 1 to 10 µg/mL (≈ 1.92 to 19.2 µM) | – | 1 to 10 µg/mL (≈ 1.92 to 19.2 µM) | –
7 | N#Cc1cnc2ccc(=O)n(CCCN[C@H]3CC[C@H]4[C@H](C3)OC(=O)N4c3ccc4c(n3)NC(=O)CO4)c2c1 [Compound 82, 5-(3-{[(3aS,6S,7aS)-2-oxo-3-{3-oxo-2H,3H,4H-pyrido[3,2-b][1,4]oxazin-6-yl}-octahydro-1,3-benzoxazol-6-yl]amino}propyl)-6-oxo-5,6-dihydro-1,5-naphthyridine-3-carbonitrile] | 1 fold | < 1 µg/mL | 0.5 fold | 1 to 10 µg/mL (≈ 1.94 to 19.4 µM) | – | < 1 µg/mL | < 1 µg/mL | 1 to 10 µg/mL (≈ 1.94 to 19.4 µM) | < 1 µg/mL | 1 to 10 µg/mL (≈ 1.94 to 19.4 µM) | < 1 µg/mL | 1 to 10 µg/mL (≈ 1.94 to 19.4 µM) | MIC (E. coli ATCC BAA-2452): 1 to 10 µg/mL (≈ 1.94 to 19.4 µM)
8 | COc1ccc2ccc(=O)n(CCCN[C@H]3CC[C@H]4[C@H](C3)OC(=O)N4c3ccc4c(n3)NC(=O)CO4)c2n1 [Compound 83, 1-(3-{[(3aS,6S,7aS)-2-oxo-3-{3-oxo-2H,3H,4H-pyrido[3,2-b][1,4]oxazin-6-yl}-octahydro-1,3-benzoxazol-6-yl]amino}propyl)-7-methoxy-1,2-dihydro-1,8-naphthyridin-2-one] | – | < 1 µg/mL | – | < 1 µg/mL | 10 to 100 µg/mL (≈ 19.2 to 192 µM) | < 1 µg/mL | < 1 µg/mL | < 1 µg/mL | < 1 µg/mL | 1 to 10 µg/mL (≈ 1.92 to 19.2 µM) | – | < 1 µg/mL | MIC (E. coli NCTC 13476): < 1 µg/mL; MIC (E. coli ATCC BAA-2452): < 1 µg/mL
9 | O=C1COc2ccc(N3C(=O)O[C@@H]4C[C@H](NCCn5c(=O)cnc6ccc(F)cc65)CC[C@H]43)nc2N1 [Compound 86, 1-(2-{[(3aR,6R,7aR)-2-oxo-3-{3-oxo-2H,3H,4H-pyrido[3,2-b][1,4]oxazin-6-yl}-octahydro-1,3-benzoxazol-6-yl]amino}ethyl)-7-fluoro-1,2-dihydroquinoxalin-2-one] | – | < 1 µg/mL | – | < 1 µg/mL | 10 to 100 µg/mL (≈ 20.2 to 202 µM) | < 1 µg/mL | < 1 µg/mL | < 1 µg/mL | < 1 µg/mL | 1 to 10 µg/mL (≈ 2.02 to 20.2 µM) | – | < 1 µg/mL | MIC (E. coli NCTC 13476): < 1 µg/mL; MIC (E. coli ATCC BAA-2452): < 1 µg/mL
10 | N#Cc1ccc2c(ccc(=O)n2CCN[C@@H]2CC[C@@H]3[C@@H](C2)OC(=O)N3c2ccc3c(n2)NC(=O)CO3)c1 [Compound 106, 1-(2-{[(3aR,6R,7aR)-2-oxo-3-{3-oxo-2H,3H,4H-pyrido[3,2-b][1,4]oxazin-6-yl}-octahydro-1,3-benzoxazol-6-yl]amino}ethyl)-2-oxo-1,2-dihydroquinoline-6-carbonitrile] | – | < 1 µg/mL | – | 1 to 10 µg/mL (≈ 2 to 20 µM) | – | < 1 µg/mL | < 1 µg/mL | 1 to 10 µg/mL (≈ 2 to 20 µM) | – | – | < 1 µg/mL | – | –
11 | C[C@H]1COc2c(N3CCN(C)CC3)c(F)cc3c(=O)c(C(=O)O)cn1c23 [LEV, levofloxacin, reference compound] | 8 fold | – | 8 fold | – | – | – | – | – | – | – | – | – | –
